What was measured:
[1] = Absorption spectra (λmax, molar absorption coefficient); format: physicochemical; conditions: in aqueous solution
Procedure: Absorption spectra were recorded on a Shimadzu UV-2100 spectrophotometer or with a Carry 50 Biospectrophotometer (Varian, Mulgrave, USA). Fluorescence spectra were measured with a Spex Fluorolog 3 spectrophotometer, with correction for the wavelength dependence system (RCA C31034 photomultiplier), or with a PerkinElmer LS 50 spectrofluorimeter. Transient absorption spectra were measured with an Applied Photophysics LKS 60 nanosecond laser flash photolysis kinetic spectrometer, using the third harmonic of a Spectra-Physics Quanta Ray GCR 130-01 Nd/YAG laser for excitation, a Hamamatsu 1P28 photomultiplier and a Hewlett-Packard Infinium oscilloscope (1 GS/s). Flash photolysis measurements were made in the presence of air and in argon saturated solutions. Photoacoustic calorimetry employed the same Nd/YAG laser, a home-made front-face photoacoustic cell with a 2.25 MHz Panametrics transducer (model 5676) and a Tektronix DSA 601 transient recorder. Room-temperature singlet-oxygen phosphorescence was measured at 1270 nm with a Hamamatsu R5509-42 photomultiplier, cooled to 193 K in a liquid nitrogen chamber (Products for Research model PC176TSCE005), following laser excitation of aerated solutions at 355 nm, using an adapted Applied Photophysics spectrometer. Singlet oxygen emission at 1270 nm was also monitored with a liquid nitrogen-cooled germanium detector (North Coast) coupled to a Tectronix Digitizing scope (TDS 520B), following sample excitation with 5 ns laser pulses of the third harmonic (355 nm) generated by a Q-switched Nd:YAG laser (Continuum Surelite II).
(§1) This is indicative of little aggregation between the molecules, which exist mostly as monomers at these concentrations in the solvents studied. Table 1 presents typical red and infrared molar absorption coefficients (εmax) and wavelength maxima. The same table also presents representative fluorescence quantum yields (ΦF) of Luzitins. The fluorescence quantum yields decrease of these molecules decrease in the presence of chlorine substituents, a fingerprint of the heavy atom effect expected for such molecules.

[2] = Fluorescence quantum yield; format: physicochemical; conditions: in aqueous solution
Procedure: The absorptions of both reference and sample solutions were matched at ca 0.2 at the excitation wavelength of 515.5 nm, and the solutions were diluted by a factor 10 before collecting the fluorescence. The fluorescence quantum yield was obtained from the ratio of the fluorescence bands of the sample vs the reference, multiplied by the fluorescence quantum yield of the reference, 0.012 according to [12], after correction for the difference of refractive indexes of ethanol and toluene.
as §1

[3] = test system: SKMEL 188 (human melanoma); assay: Cell photosensitization, filtered halogen lamp, MTT; format: cell-based; conditions: [Luzitin-Cl-c] = 20 μM
Procedure: (§2) Irradiation in in vitro experiments was performed using either a halogen lamp or a laser source. In the first case, a 500 W halogen lamp was placed 50 cm from the irradiated plate to insure a homogeneous irradiation. A cooled water filter (d=35 mm) and a 600 nm cut off filter were placed between the lamp and samples. The fluence rate reaching samples was 3 mW/cm^2. The emission spectrum of the halogen lamp was recorded using a spectroradiometer IL2000 (Spectrocube), FIG. 1. In the second case, three Lynx external cavity diode lasers TEC 500 powered by PilotPC 500 Laser Controllers (Sacher Lasertechnik, Marburg, Germany) were employed. The laser energies were stable at 40 mW for the 748 nm laser, 10 mW for the 649 laser and 10 mW for the 633 laser. The laser energies were regularly measured with a Coherent LaserCheck. In some in vitro experiments, the laser light was focused on an optical fiber through a collimator in microbench, and delivered to the cells. This system reduced the 748 nm laser light to 30 mW.
The cell lines employed in halogen lamp irradiation were the MCF7 (human breast carcinoma), SKMEL 188 (human melanoma) and S91/I3 (mouse melanoma) cells. They were used both for cytotoxicity and photocytotoxicity experiments. MCF7 cells were grown supplemented with 10% fetal calf (FBS) serum, 25 units/ml of penicillin, and 25 μg/ml of streptomycin. Human melanoma cells SKMEL-188 were grown in F10 medium supplemented with 10% fetal calf serum (FCS), 100 units/ml of penicillin, and 100 μg/ml of streptomycin. I3 subline of Cloudman S91 melanoma cells were cultured in RPMI 1640 medium supplemented with 100 units/ml of penicillin, 100 μg/ml streptomycin and 5% fetal calf serum (FCS) (Gibco BRL). […]
Cytotoxicity. Cell metabolic efficiency and viability were determined by the uptake and reduction of 3-(4,5-dimethylthiazol-2-yl)-2,5-diphenyl tetrazolium bromide (MTT) to an insoluble formazan dye by cellular microsomal enzymes. […] The 96-well culture plate was shaken for 0.5 min at room temperature and immediately read for optical density at 560 nm using an ELISA reader (GENios Plus; Tecan Trading AG, Switzerland). The cell survival was expressed by the absorbance changes of the formazan salt, and survival rate was given as the percent ratio of viable treated cells vs. the number of viable untreated cells. Number of cells was determined from linear regression of a calibration curve.
Cell photosensitization. […] The values were obtained from three independent experiments and expressed as percent of cell survival with reference to control cells, which were manipulated in the same manner but without incubation with photosensitizer and without illumination.

[4] = test system: MCF7 (human breast carcinoma); assay: as above; format: cell-based; conditions: [Luzitin-Cl-c] = 20 μM, filtered halogen lamp
Procedure: as §2
(§3) The cell lines employed in halogen lamp irradiation were the MCF7 (human breast carcinoma), SKMEL 188 (human melanoma) and S91/I3 (mouse melanoma) cells. They were used both for cytotoxicity and photocytotoxicity experiments. MCF7 cells were grown supplemented with 10% fetal calf (FBS) serum, 25 units/ml of penicillin, and 25 μg/ml of streptomycin. Human melanoma cells SKMEL-188 were grown in F10 medium supplemented with 10% fetal calf serum (FCS), 100 units/ml of penicillin, and 100 μg/ml of streptomycin. I3 subline of Cloudman S91 melanoma cells were cultured in RPMI 1640 medium supplemented with 100 units/ml of penicillin, 100 μg/ml streptomycin and 5% fetal calf serum (FCS) (Gibco BRL). All cell lines were cultivated as monolayer in Petri dishes of 60 mm diameter and incubated at 37° C. in a humid atmosphere containing 5% CO2.
(§4) Cytotoxicity. Cell metabolic efficiency and viability were determined by the uptake and reduction of 3-(4,5-dimethylthiazol-2-yl)-2,5-diphenyl tetrazolium bromide (MTT) to an insoluble formazan dye by cellular microsomal enzymes. The cell lines were grown in RPMI medium with 10% fetal calf serum, penicillin and streptomycin. Cells were maintained in 5% CO2, 95% air and 100% humidity. For determining cytotoxicity, these cells were plated in 96-well plates at a density of 1×10^4 cells well in complete media. After 24 h, the cells were incubated with photosensitizers at different concentrations (0.25 up to 50 μM) for 18 hours at 37° C. The cells were then washed twice with PBS and incubated in growth medium at 37° C. for 24 h. Next, the medium was replaced by 100 μl of fresh medium and 20 μl of MTT, and the cells were incubated with MTT for 3 h, with a final concentration of 0.5 mg/ml. Then the culture medium was replaced with DMSO-methanol solution (1:1) to dissolve the blue formazan crystals. The 96-well culture plate was shaken for 0.5 min at room temperature and immediately read for optical density at 560 nm using an ELISA reader (GENios Plus; Tecan Trading AG, Switzerland). The cell survival was expressed by the absorbance changes of the formazan salt, and survival rate was given as the percent ratio of viable treated cells vs. the number of viable untreated cells. Number of cells was determined from linear regression of a calibration curve.
(§5) Cell photosensitization. SKMEL 188, S91 and MCF7 cells were prepared as described above. […] The cells were incubated for 12 h at 37° C. and then irradiated at a 0.53 mW cm^2 fluence rate and in doses ranging from 0.1 to 0.64 J cm^2. We recall that photosensitizer uses only ca. ⅕ of the available fluence rate of the filtered halogen lamp. The MTT test was performed 24 h after irradiation. The values were obtained from three independent experiments and expressed as percent of cell survival with reference to control cells, which were manipulated in the same manner but without incubation with photosensitizer and without illumination. […]

S91 (mouse melanoma) = assay: as above; format: cell-based; conditions: [Luzitin-Cl-c] = 20 μM
Procedure: as §2, §3, §4, §5

[5] = Singlet oxygen quantum yield and lifetime (1270 nm phosphorescence); format: physicochemical; conditions: in aqueous solution

O=S(=O)(O)c1ccc(Cl)c(-c2c3nc(c(-c4cc(S(=O)(=O)O)ccc4Cl)c4ccc([nH]4)c(-c4cc(S(=O)(=O)O)ccc4Cl)c4nc(c(-c5cc(S(=O)(=O)O)ccc5Cl)c5ccc2[nH]5)CC4)C=C3)c1 [Luzitin-Cl-c, 5,10,15,20-tetrakis(2-chloro-5-sulfonylphenyl)chlorin]
εmax [1]: 7,000 M^−1 cm^−1 | λmax [1]: 650 nm | ΦF (fluorescence quantum yield) [2]: 0.039 | LD50 (light dose to kill 50% of the cells) [3]: 0.26 J/cm^2 | LD90 (light dose to kill 90% of the cells) [3]: 0.46 J/cm^2 | LD50 (light dose to kill 50% of the cells) [4]: 0.3 J/cm^2 | LD90 (light dose to kill 90% of the cells) [4]: 0.7 J/cm^2 | LD50 (light dose to kill 50% of the cells) (S91 (mouse melanoma)): 0.13 J/cm^2 | LD90 (light dose to kill 90% of the cells) (S91 (mouse melanoma)): 0.26 J/cm^2 | ΦΔ (singlet oxygen quantum yield) [5]: 0.69

Reference: patent US9670217B2, “Process for preparing chlorins and their pharmaceutical uses” (UNIVERSIDADE DE COIMBRA, priority 2008, dated 2017)
